Measurements published in ChEMBL document CHEMBL4699516, “S-Bridged Thioether and Structure-Diversified Angucyclinone Derivatives from the South China Sea-Derived Micromonospora echinospora SCSIO 04089” (J Nat Prod, 2020).
In brackets after ≈: the same amount, converted by molar mass.

Assays:
Micrococcus luteus = experiment: Antibacterial activity against Micrococcus luteus SCSIO ML01 assessed as reduction in bacterial growth after 16 hrs by broth microdilution method; type: functional
Bacillus thuringiensis = experiment: Antibacterial activity against Bacillus thuringiensis SCSIO BT01 assessed as reduction in bacterial growth after 16 hrs by broth microdilution method; type: functional
Staphylococcus aureus [1] = experiment: Antibacterial activity against methicillin-resistant Staphylococcus aureus shhs-A1 assessed as reduction in bacterial growth after 16 hrs by broth microdilution method; type: functional
MCF7 = experiment: Cytotoxicity against human MCF7 cells assessed as reduction in cell viability after 72 hrs by SRB assay; type: functional, cell-based; conditions: MCF7, 72 h
Bacillus subtilis = experiment: Antibacterial activity against […] 1064 assessed as reduction in bacterial growth after 16 hrs by broth microdilution method; type: functional
SF-268 = experiment: Cytotoxicity against human SF-268 cells assessed as reduction in cell viability after 72 hrs by SRB assay; type: functional, cell-based; conditions: SF-268, 72 h
HepG2 = experiment: Cytotoxicity against human HepG2 cells assessed as reduction in cell viability after 72 hrs by SRB assay; type: functional, cell-based; conditions: HepG2, 72 h
Staphylococcus aureus [2] = experiment: Antibacterial activity against Staphylococcus aureus ATCC 29213 assessed as reduction in bacterial growth after 16 hrs by broth microdilution method; type: functional

SMILES	MIC (Micrococcus luteus) [µg/mL]	MIC (Bacillus thuringiensis) [µg/mL]	MIC (Staphylococcus aureus [1]) [µg/mL]	IC50 (MCF7) [µM]	MIC (Bacillus subtilis) [µg/mL]	IC50 (SF-268) [µM]	IC50 (HepG2) [µM]	MIC (Staphylococcus aureus [2]) [µg/mL]
CC[C@]12CC(=O)[C@@]3(O)[C@](O)(CC(O)=C4C(=O)c5c(O)cccc5C(=O)[C@@]43S1)C2	> 64	> 64	> 64	> 100	> 64	> 100	> 100	> 64
CCc1cc(O)c2c3c(c(O)cc2c1)C(=O)c1c(O)cccc1C3=O	8 (≈ 23.9 µM)	> 64	> 64	14.9	> 64	16.9	25.3	4 (≈ 12 µM)
CCc1cc(O)c2c(c1C(C)=O)C(=O)c1cccc(O)c1C2=O	> 64	> 64	> 64	10.4	> 64	7.6	8.1	> 64
CCc1cc(O)c(C2=C(O)C(=O)c3c(O)cccc3C2=O)c(C(=O)OC)c1	> 64	> 64	> 64	> 100	> 64	> 100	> 100	> 64
CCc1cc(C(=O)O)c2c3c(oc2c1)C(=O)c1c(O)cccc1C3=O	> 64	> 64	> 64	> 100	> 64	> 100	> 100	> 64
Cc1cn([C@H]2C[C@H](O)[C@@H](COP(=O)(O)O)O2)c(=O)[nH]c1=O [THYMIDINE MONOPHOSPHATE]	0.5	0.5	2		0.5			2
CCc1cc(O)c2c(c1)C(N)=C1C(=O)c3c(O)cccc3C(=O)C12CC(C)=O (racemic)	> 64	> 64	> 64	> 100	> 64	> 100	> 100	> 64
CCc1cc(O)c2c3c([nH]c(=O)c2c1)C(=O)c1c(O)cccc1C3=O	> 64	> 64	64 (≈ 191 µM)	52	> 64	18	4	64 (≈ 191 µM)
CC[C@]1(O)CC(=O)c2c(cc(O)c3c2C(=O)c2cccc(O)c2C3=O)C1	> 64	> 64	> 64	12.5	> 64	9	10.3	> 64
CCc1cc(O)c2c3c(ncc2c1)C(=O)c1c(O)cccc1C3=O	4 (≈ 12.5 µM)	4 (≈ 12.5 µM)	2 (≈ 6.26 µM)	6.8	4 (≈ 12.5 µM)	5.4	1.4	2 (≈ 6.26 µM)
CCc1cc(O)c2c(c1)C(SC[C@H](NC(C)=O)C(=O)O)=C1C(=O)c3c(O)cccc3C(O)=C12	> 64	> 64	> 64	> 100	> 64	> 100	> 100	> 64
